Measured values reported in patent US20260234141A1, “COMPOUNDS AND COMPOSITIONS USEFUL AS DEGRADERS OF MK2 KINASE” (Celgene Corporation, priority 2023, published 2026).
pIC50: −log10 of the molar value.

What was measured:
MK2 = molecular target: T1, MK2 (Homo sapiens, UniProt P49137); assay: MK2 degradation assay in MK2 overexpressed HiBiT-tagged cell line; type: cell-based; details: cells stably expressing HiBiT-tagged MK2 (overexpressed), overnight incubation, read-out: HiBiT MK2 OE EC50
T1 construct: expressed in transfected cells
T1 sequence (P49137 whole entry): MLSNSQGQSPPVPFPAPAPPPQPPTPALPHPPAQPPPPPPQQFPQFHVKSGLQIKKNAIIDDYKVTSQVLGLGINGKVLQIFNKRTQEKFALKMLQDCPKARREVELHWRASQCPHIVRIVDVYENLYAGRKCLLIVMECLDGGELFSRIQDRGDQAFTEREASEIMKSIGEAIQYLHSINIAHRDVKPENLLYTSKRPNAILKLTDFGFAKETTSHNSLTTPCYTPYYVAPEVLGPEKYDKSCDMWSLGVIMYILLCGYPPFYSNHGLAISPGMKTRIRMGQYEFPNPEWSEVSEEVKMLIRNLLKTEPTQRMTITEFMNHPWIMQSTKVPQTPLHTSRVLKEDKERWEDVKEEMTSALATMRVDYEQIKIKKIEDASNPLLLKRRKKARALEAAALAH
Protocol: A compound was dispensed into a white 384-well tissue-culture treated plate using an acoustic liquid handler. Dilutions were based on a 25 μL assay volume in duplicate 10 point 3-fold serial dilutions starting with a 10 μM dose. Negative control wells containing only 0.2% DMSO were also included to calculate 100% signal. All wells were backfilled to a final DMSO concentration of 0.2% to ensure DMSO uniformity across wells. Cells stably expressing HiBiT-tagged protein of interest were then washed, trypsinized, and counted.
These cells were then resuspended in fresh medium to give the proper concentration. This was done so that when cells were plated at a 25 μL seeding volume the assay would be conducted within the linear range from optimization of cell-based HiBiT assay. Following the above procedure, 25 μL of cells expressing HiBiT-tagged protein of interest were dispensed per well. Cells were then seeded into the 384-well plate that was pre-spotted with compounds. The resulting cells were incubated overnight at 37° C./5% CO2.
The 384-well plates were then removed from the incubator and left at room temperature for 30 min. The Nano-Glo HiBiT Lytic Detection Reagent was prepared according to manufacturer's instructions. 25 μL of Nano-Glo HiBiT Lytic Detection Reagent were added per well of a 384-well plate. The resulting plates were incubates for 30 min at room temperature. Luminescence signal was then read using a plate reader.
All luminescence values were normalized to the DMSO control wells. The average value of the DMSO control wells was set to equal 100% of the relative HiBiT-tagged target protein levels.
The luminescence values were plotted using a graphing software. Compound concentration was plotted on the x-axis and the corresponding relative protein of interest levels on the y-axis. Graphing software was used to determine the EC50 value (the half-maximum effective concentration) of a compound for the degradation of the HiBiT-tagged substrate. The software used a four-parameter logistic model (sigmoidal dose-response model) (FIT=(A+{(B−A)/1+[(C/x)^D]})) where C was the inflection point (EC50), D was the […], and A and B were the low and high limits of the fit, respectively) to calculate the EC50. The Ymin was calculated by determining the lowest percentage of target protein remaining following compound treatment.

[1] = molecular target: T2, p38a activated, mitogen-activated protein kinase-activated protein kinase 2 (MAPKAP-K2 or MK2) enzyme (Homo sapiens, UniProt P49137); assay: MK2 OMNIA biochemical assay (AssayQuant continuous-read kinase assay); details: [MK-2]=0.05 nM, [ATP]=100 μM, [AQT0425]=10 μM
T2 construct: purchased Invitrogen PV3317
T2 sequence (P49137 whole entry): as above
Protocol: The protocol below describes a continuous-read kinase assay optimized to measure potency of compounds against p38a activated, mitogen-activated protein kinase-activated protein kinase 2 (MAPKAP-K2 or MK2) enzyme.
A 1.25× stock solution of MK2 (PV3317, from Invitrogen) and a 5× stock solution of ATP and Sox conjugated peptide substrate, AQT0425 (CSKS-AQT0425B, from AssayQuant Technologies), were prepared in 1× kinase reaction buffer consisting of 50 mM HEPES, pH 7.5, 0.01% Brij-35, 0.55 mM EGTA, 10 mM MgCl2 and 1 mM DTT.
10 μL of the ATP and substrate solution mix was added to a Corning (3574) 384-well, white, non-binding surface microtiter plate containing […] of serially diluted test compounds prepared in DMSO. The reactions were started with the addition of 40 μL of the enzyme solution and monitored every 71 seconds for 240 min at λex 360/λem 485 in a Synergy H4 plate reader from BioTek at room temperature.
The initial linear portions of the net progress curves were fit according to a linear equation to yield the slope and percentage of inhibition (% inhibition) at each compound concentration. The net progress curves obtained during the entirety of reactions were also fit according to an ascending single-exponential equation (Eq. 1) to yield Vobs values at each compound concentration. Plots of % Inhibition versus degrader concentrations were fit according to a dose-response equation (Eq. 2) to generate IC50 and Hill slope values while plots of Vobs versus degrader concentration were fit according to Equation 3 (Eq. 3) to generate apparent Kinact values using the GraphPad PRISM software.
where F is the fluorescence intensity from the plate reader, V0 is a constant reflecting the relationship between the instrument readout and product concentration, t is time, e is Euler's number, and Vobs is the observed inactivation rate constant.
where % Inhibition is percentage of inhibition, IC50 is half maximal inhibitory concentration, [I] is the degraders concentration, and n is the Hill slope.
where kobs is the observed inactivation rate constant, Kinact is the apparent inactivation rate constant, KI is the apparent inhibition constant, and [I] is the degrader concentration.

| Structure (SMILES) | DC50 (MK2) | pIC50 [1] |
| --- | --- | --- |
| Cn1nc(C2CCC(=O)NC2=O)c2ccc(N3CCN(C[C@H]4CC[C@H](NC(=O)c5ccc(-c6cc(-c7cc8c([nH]7)CCNC8=O)ccn6)c(F)c5)CC4)CC3)cc21 (stereo partly drawn) [Example 1.5, N-[trans-4-[[4-[3-(2,6-dioxo-3-piperidyl)-1-methyl-indazol-6-yl]piperazin-1-yl]methyl]cyclohexyl]-3-fluoro-4-[4-(4-oxo-1,5,6,7-tetrahydropyrrolo[3,2-c]pyridin-2-yl)-2-pyridyl]benzamide] | < 10 nM | > 6.82 |
| O=C1CCC(c2cccc(N3CCN(C[C@H]4CC[C@H](NC(=O)c5ccc(-c6cc(-c7cc8c([nH]7)CCNC8=O)ccn6)c(F)c5)CC4)CC3)c2)C(=O)N1 (stereo partly drawn) [Example 1.7, N-(trans-4-((4-(3-(2,6-Dioxopiperidin-3-yl)phenyl)piperazin-1-yl)methyl)cyclohexyl)-3-fluoro-4-(4-(4-oxo-4,5,6,7-tetrahydro-1H-pyrrolo[3,2-c]pyridin-2-yl)pyridin-2-yl)benzamide] | 10 to 100 nM | 6.30 to 6.82 |
| O=C1CCC(c2ccc(N3CCN(CC[C@H]4CC[C@H](NC(=O)c5ccc(-c6cc(-c7cc8c([nH]7)CCNC8=O)ccn6)c(F)c5)CC4)CC3)cc2)C(=O)N1 (stereo partly drawn) [Example 1.10, N-(trans-4-(2-(4-(4-(2,6-Dioxopiperidin-3-yl)phenyl)piperazin-1-yl)ethyl)cyclohexyl)-3-fluoro-4-(4-(4-oxo-4,5,6,7-tetrahydro-1H-pyrrolo[3,2-c]pyridin-2-yl)pyridin-2-yl)benzamide] | 10 to 100 nM | 6.00 to 6.30 |
| Cn1nc(C2CCC(=O)NC2=O)c2ccc(N3CCN(CCN4CCN(c5cccc(-c6cc(-c7cc8c([nH]7)CCNC8=O)ccn6)c5)CC4)CC3)cc21 (stereo not drawn) [Example 1.11, 3-(1-Methyl-6-(4-(2-(4-(3-(4-(4-oxo-4,5,6,7-tetrahydro-1H-pyrrolo[3,2-c]pyridin-2-yl)pyridin-2-yl)phenyl)piperazin-1-yl)ethyl)piperazin-1-yl)-1H-indazol-3-yl)piperidine-2,6-dione] | 101 to 500 nM | > 6.82 |
| Cn1nc(C2CCC(=O)NC2=O)c2cccc(N3CCN(CCN4CCN(c5ccc(-c6cc(-c7cc8c([nH]7)CCNC8=O)ccn6)c(F)c5)CC4)CC3)c21 (stereo not drawn) [Example 1.13, 3-(7-(4-(2-(4-(3-Fluoro-4-(4-(4-oxo-4,5,6,7-tetrahydro-1H-pyrrolo[3,2-c]pyridin-2-yl)pyridin-2-yl)phenyl)piperazin-1-yl)ethyl)piperazin-1-yl)-1-methyl-1H-indazol-3-yl)piperidine-2,6-dione] | < 10 nM | 6.00 to 6.30 |

The remaining lines, values ahead:

| DC50 (MK2) | pIC50 [1] | Structure (SMILES) |
| --- | --- | --- |
| 10 to 100 nM | 6.30 to 6.82 | O=C1CCC(c2ccc(N3CCN(C[C@H]4CC[C@H](NC(=O)c5ccc(-c6cc(-c7cc8c([nH]7)CCNC8=O)ccn6)c(F)c5)CC4)CC3)cc2)C(=O)N1 (stereo partly drawn) [Example 1.6, N-(trans-4-((4-(4-(2,6-Dioxopiperidin-3-yl)phenyl)piperazin-1-yl)methyl)cyclohexyl)-3-fluoro-4-(4-(4-oxo-4,5,6,7-tetrahydro-1H-pyrrolo[3,2-c]pyridin-2-yl)pyridin-2-yl)benzamide] |
| < 10 nM | 6.00 to 6.30 | Cn1nc(C2CCC(=O)NC2=O)c2ccc(N3CCN(CC[C@H]4CC[C@H](NC(=O)c5ccc(-c6cc(-c7cc8c([nH]7)CCNC8=O)ccn6)c(F)c5)CC4)CC3)cc21 (stereo partly drawn) [Example 1.8, N-(trans-4-(2-(4-(3-(2,6-Dioxopiperidin-3-yl)-1-methyl-1H-indazol-6-yl)piperazin-1-yl)ethyl)cyclohexyl)-3-fluoro-4-(4-(4-oxo-4,5,6,7-tetrahydro-1H-pyrrolo[3,2-c]pyridin-2-yl)pyridin-2-yl)benzamide] |
| 101 to 500 nM | 6.30 to 6.82 | O=C1CCC(c2cccc(N3CCN(CC[C@H]4CC[C@H](NC(=O)c5ccc(-c6cc(-c7cc8c([nH]7)CCNC8=O)ccn6)c(F)c5)CC4)CC3)c2)C(=O)N1 (stereo partly drawn) [Example 1.9, N-(trans-4-(2-(4-(3-(2,6-Dioxopiperidin-3-yl)phenyl)piperazin-1-yl)ethyl)cyclohexyl)-3-fluoro-4-(4-(4-oxo-4,5,6,7-tetrahydro-1H-pyrrolo[3,2-c]pyridin-2-yl)pyridin-2-yl)benzamide] |
| > 500 nM | 6.30 to 6.82 | O=C1CCC(c2ccc(N3CCN(CCN4CCN(c5cccc(-c6cc(-c7cc8c([nH]7)CCNC8=O)ccn6)c5)CC4)CC3)cc2)C(=O)N1 (stereo not drawn) [Example 1.12, 3-(4-(4-(2-(4-(3-(4-(4-Oxo-4,5,6,7-tetrahydro-1H-pyrrolo[3,2-c]pyridin-2-yl)pyridin-2-yl)phenyl)piperazin-1-yl)ethyl)piperazin-1-yl)phenyl)piperidine-2,6-dione] |
